According to patent publication US8653072B2, “Estrogen receptor ligands” (Karo Bio AB, priority 2008, dated 2014):

Assays:
[1] = target: T1, human ERβ (ERβ-LBD) (Homo sapiens, UniProt Q92731); test: Binding assay 1: estrogen receptor SPA binding assay (3H-E2 displacement), ERβ; conditions: read-out: binding affinity to the estrogen receptor β-subtype, IC50
T1 construct: ERβ (ERβ-LBD, pET-N-AT #1, aa 255-530); made in house; host or cells: E. coli BL21 (DE3) pBirA
Protocol: Binding Assay 1: Estrogen Receptor Binding Assay
The estrogen receptor ligand binding assays are designed as scintillation proximity assays (SPA), employing the use of tritiated estradiol (^3H-E2) and recombinant expressed biotinylated estrogen receptor binding domains. The binding domains of human ERα (ERα-LBD, pET-N-AT #1, aa 301-595) and ERβ (ERβ-LBD, pET-N-AT #1, aa 255-530) proteins are produced in E. coli ((BL21, (DE3), pBirA)) at 22 C in 2×LB medium supplemented with 50 uM biotin. After 3 h of IPTG induction (0.55 mM), cells are harvested by centrifugation at 7300×g for 15 min and cell pellets stored frozen in −20 C. Extraction of ERα and ERβ are performed using 5 g of cells suspended in 50 mL of extraction buffer (50 mM Trig, pH 8.0, 100 mM KCl, 4 mM EDTA, 4 mM DDT and 0.1 mM PMSF). The cell suspension is run twice through a Microfluidizer M-110L (Microfluidics) and centrifuged at 15,000×g for 60 min. The supernatant is aliquoted and stored in −70 C.
Dilute ERα-LBD or ERβ-LBD extracts in assay buffer (18 mM K2HPO4, 2 mM KH2PO4, 20 mM NasMoO4, 1 mM EDTA, 1 mM TCEP) 1:676 and 1:517 for alpha and beta respectively. The diluted receptor concentrations should be 900 fmol/L. Preincubate the extracts with streptavidin coated polyvinyltoluene SPA beads (RPNQ0007, GE Healthcare) at a concentration of 0.43 mg/mL for 1 hr at room temperature.
Test compounds are evaluated over a range of concentrations from 157 μM to 37.5 pM. The test compound stock solutions should be made in 100% DMSO at 5× of the final concentration desired for testing in the assay. The amount of DMSO in the test wells of the 384 well plate will be 20%. Add 18 μl aliquots of test compounds to the assay plates followed by 35 μl of the preincubated receptor/SPA bead mix and finally add 35 μl of 3 nM ^3H-E2. Cover the plates with a plastic sealer, centrifuge for 1 minute at 1000 rpm and equilibrate over night on a shaker at room temperature. The following morning, centrifuge the plates 5 minutes at 2000 rpm and measure on a plate scintillation counter e.g. a PerkinElmer Microbeta 1450 Trilux.
For compounds able to displace 3[H]-E2 from the receptor an IC50-value (the concentration required to inhibit 50% of the binding of 3[H]-E2) is determined by a non-linear four parameter logistic model; b=((bmax−bmin)/(1+(I/IC50)S))+bmin I is added concentration of binding inhibitor, IC50 is the concentration of inhibitor at half maximal binding and S is a slope factor. The Microbeta-instrument generates the mean cpm (counts per minute) value/minute and corrects for individual variations between the detectors thus generating corrected cpm values.

[2] = target: T2, human estrogen receptor beta (hERβ 530) (Homo sapiens, UniProt Q92731); test: Transactivation assay 2: HEK293 cells stably transfected with pERE2-ALP and human estrogen receptor beta; type: cell-based; conditions: read-out: potency at the estrogen receptor β-subtype, EC50
T2 construct: expressed in transfected cells
T2 sequence (Q92731 whole entry): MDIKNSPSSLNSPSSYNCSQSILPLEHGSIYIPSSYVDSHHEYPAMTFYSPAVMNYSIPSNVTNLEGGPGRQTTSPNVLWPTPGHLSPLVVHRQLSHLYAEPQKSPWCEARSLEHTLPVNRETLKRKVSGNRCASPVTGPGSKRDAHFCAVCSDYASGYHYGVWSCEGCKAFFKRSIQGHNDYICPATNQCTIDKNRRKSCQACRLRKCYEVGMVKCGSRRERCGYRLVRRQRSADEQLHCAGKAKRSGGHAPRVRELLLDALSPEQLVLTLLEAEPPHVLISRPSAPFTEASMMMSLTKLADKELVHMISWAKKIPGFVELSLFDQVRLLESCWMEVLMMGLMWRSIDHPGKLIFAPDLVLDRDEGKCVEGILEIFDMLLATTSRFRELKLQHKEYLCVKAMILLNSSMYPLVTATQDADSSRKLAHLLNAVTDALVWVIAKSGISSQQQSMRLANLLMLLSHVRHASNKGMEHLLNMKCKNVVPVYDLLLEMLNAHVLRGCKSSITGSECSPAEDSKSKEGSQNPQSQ
Protocol: Transactivation Assay 2: Transactivation Assay in Human Embryonic Kidney 293 Cells Stably Transfected with pERE2-ALP and Human Estrogen Receptor Beta
Generation of stable HEK293 cell lines (CRL-1573; American Type Culture Collection) expressing the reporter vector pERE2-ALP and human estrogen receptor beta (hERβ 530) have been described (Mol Pharmacol 1998, 54, 105-112; Endocrinology 2002, 143, 1558-1561),
The cells were seeded in 384-well plates at 12 500 cells per well in Ham's F12 Coon's modification (without phenol red) with 10% dextran-coated charcoal treated (DCC) fetal bovine serum (FBS), 2 mM L-glutamine and 50 μg/ml gentamicin. After 24 h incubation (37° C., 5% CO2) the seeding medium was discarded and replaced with 20 μl Ham's F12 Coon's modification (without phenol red) with 1.5 DCC-FCS, 2 mM L-glutamine and supplemented with 100 U/ml penicillin and 100 μg/ml streptomycin. The selected compounds were added to the wells in 12 concentrations ranging from […] to 33 μM. The compounds were dissolved in 100% dimethylsulfoxide (DMSO) and the final concentration of DMSO in the assay was 0.1%. After 72 h incubation (37° C., 5% CO2) the medium was assayed for ALP activity by a chemiluminescence assay; a 10 μl aliquot of the conditioned medium was mixed with 100 μl assay buffer (0.1 M diethanolamine, 1 mM MgCl2) and 0.5 mM disodium 3-(4-methoxyspiro 1,2-dioxetane-3,2′-(5′-chloro)-tricyclo[3.3.1.13,7]decan-4-yl)phenyl phosphate (CSPD) (Tropix, Applied Biosystems) and incubated for 20 min at 37° C. and 15 min at room temperature before measurement of the chemiluminescent signal (one second per well) in a Wallac Microbeta Trilux 1450-028 (PerkinElmer). The ALP activity expressed in LCPS is directly proportional to the level of ALP expressed by the cells. The half maximal effective concentrations of the test compounds (EC50) were calculated from the curves fitted to the concentration-response data with a four parameter logistic model in XLfit software version 2.0 (IDBS) or later.

T1 sequence (Q92731 255-530): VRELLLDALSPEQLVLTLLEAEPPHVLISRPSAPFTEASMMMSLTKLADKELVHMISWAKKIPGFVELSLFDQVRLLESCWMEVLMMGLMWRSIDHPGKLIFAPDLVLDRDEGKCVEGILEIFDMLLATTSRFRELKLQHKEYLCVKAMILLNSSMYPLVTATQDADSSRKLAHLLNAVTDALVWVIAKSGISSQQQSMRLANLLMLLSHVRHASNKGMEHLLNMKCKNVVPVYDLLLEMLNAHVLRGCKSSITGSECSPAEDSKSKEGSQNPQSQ

Structure (SMILES)	IC50 [1]	EC50 [2]
C/C=C(/C)c1c(/C(N)=N/O)c2ccccc2n1-c1ccc(O)cc1 [Example 191, (Z)-2-((Z)-but-2-en-2-yl)-N′-hydroxy-1-(4-hydroxyphenyl)-1H-indole-3-carboximidamide]	0.001 to 0.2 µM	0.001 to 0.05 µM
Cc1ccc(C)n1-c1c(/C(N)=N/O)c2ccccc2n1-c1ccc(O)cc1 [Example 194, (Z)-2-(2,5-dimethyl-1H-pyrrol-1-yl)-N′-hydroxy-1-(4-hydroxyphenyl)-1H-indole-3-carboximidamide]	0.001 to 0.2 µM	0.001 to 0.05 µM
CC(C)=Cc1c(C#N)c2cc(F)ccc2n1-c1ccc(O)cc1 [Example 220, 5-Fluoro-1-(4-hydroxy-penyl)-2-(2-methyl-prop-1-enyl)-1H-indole-3-carbonitrile]	0.001 to 0.2 µM	0.001 to 0.05 µM
Cc1noc(C)c1-c1c(/C(N)=N/O)c2cc(F)ccc2n1-c1ccc(O)cc1 [Example 221, (Z)-2-(3,5-dimethylisoxazol-4-yl)-5-fluoro-N′-hydroxy-1-(4-hydroxyphenyl)-1H-indole-3-carboximidamide]	0.001 to 0.2 µM	0.001 to 0.05 µM
CC(C)=Cc1c(/C(N)=N/O)c2cc(F)ccc2n1-c1ccc(O)cc1 [Example 223, (Z)-5-fluoro-N′-hydroxy-1-(4-hydroxyphenyl)-2-(2-methylprop-1-enyl)-1H-indole-3-carboximidamide]	0.001 to 0.2 µM	0.001 to 0.05 µM
Cc1noc(C)c1-c1c(C(N)=NO)c2ccccc2n1-c1ccc(O)cc1F [Example 235, (Z)-2-(3,5-dimethylisoxazol-4-yl)-1-(2-fluoro-4-hydroxyphenyl)-N′-hydroxy-21H-indole-3-carboximidamide]	0.001 to 0.2 µM	0.001 to 0.05 µM

More lines, now with the values ahead:

IC50 [1]	EC50 [2]	Structure (SMILES)
0.001 to 0.2 µM	0.001 to 0.05 µM	Cc1noc(C)c1-c1c(/C(N)=N/O)c2ccccc2n1-c1ccc(O)cc1 [Example 11, (Z)-2-(3,5-dimethylisoxazol-4-yl)-N′-hydroxy-1-(4-hydroxyphenyl)-1H-indole-3-carboximidamide]
0.001 to 0.2 µM	0.001 to 0.05 µM	CC(C)=Cc1c(C#N)c2ccccc2n1-c1ccc(O)cc1 [Example 39, 2-(Isobut-1-enyl)-1-(4-hydroxyphenyl)-1H-indole-3-carbonitrile]
0.001 to 0.2 µM	0.001 to 0.05 µM	Cc1noc(C)c1-c1c(-c2ccccc2)c2ccccc2n1-c1ccc(O)cc1 [Example 42, 4-(2-(3,5-dimethylisoxazol-4-yl)-3-phenyl-1H-indol-1-yl)phenol]
0.001 to 0.2 µM	0.001 to 0.05 µM	C/C=C\c1c(C#N)c2ccccc2n1-c1ccc(O)cc1 [Example 68, 1-(4-Hydroxy-phenyl)-2-((Z)-propenyl)-1H-indole-3-carbonitrile]
0.001 to 0.2 µM	0.001 to 0.05 µM	C=C(C)c1c(-c2ccccc2)n(-c2ccc(O)cc2)c2ccccc12 [Example 163, 4-(3-Isopropenyl-2-phenyl-indol-1-yl)-phenol]
0.001 to 0.2 µM	0.001 to 0.05 µM	Cc1cccn1-c1c(/C(N)=N/O)c2ccccc2n1-c1ccc(O)cc1 [Example 188, (Z)-N′-hydroxy-1-(4-hydroxyphenyl)-2-(2-methyl-1H-pyrrol-1-yl)-1H-indole-3-carboximidamide]
